{
  "source": "patent US11285132B2",
  "about": "“Uses of indolinone compounds” (Oncternal Therapeutics, Inc., priority 2016, dated 2022)",
  "key": {"[1]": {"tested_on": "DLBCL cell lines", "assay": "Combination with other targeted agents, summary over DLBCL cell lines", "type": "cell-based", "experimental": "The latter synergism could be linked to the previously mentioned negative trend between TK-216 IC50 values and the presence of BCL2 translocation.\n(§1) Cell lines were exposed to YK-4-279 or TK-216, alone or in combination with other compounds, for 72 h using a Tecan D300e Digital Dispenser and 96 well plates. Cell proliferation was measured with MTT. Synergy was determined with the Chou-Talalay combination index. Gene expression profiling (GEP) was performed with the Illumina HumanHT 12 Expression BeadChips. In vivo studies were done in NOD-SCID mice and treatments started with 60 mm3 tumor volumes sc.\nSince lenalidomide is active in mantle cell lymphoma (MCL), the synergism of the combination of TK-216 and lenalidomide was confirmed also in two MCL cell lines."}, "[2]": {"tested_on": "A4573 cells", "assay": "Proliferation of Ewing sarcoma A4573 cell line", "type": "cell-based", "conditions": "A4573 cells (EWS-FLI1 expressing Ewing sarcoma cell line); read-out: EC50, inhibition of proliferation", "text": "(§2) TK216 is a first in class, small molecule that directly binds EWS-FLI1 inhibiting the biological activity of ETS-family transcription factor oncoproteins and is currently under clinical investigation in patients with Ewing sarcoma."}, "[3]": {"tested_on": "MOLM-16", "assay": "72 hr CellTiter-Glo, AML cell line", "type": "cell-based", "conditions": "MOLM16"}, "[4]": {"tested_on": "56 lymphoma cell lines", "assay": "MTT proliferation, 56 lymphoma cell lines, 72 h", "type": "cell-based", "conditions": "95% C.I.: 367-506, read-out: median IC50", "experimental": "56 lymphoma cell lines [27 diffuse large B cell lymphoma (DLBCL); 10 mantle cell lymphoma; 6 marginal zone lymphoma; 5 anaplastic large T-cell lymphoma; 8 others] were exposed to TK-216 increasing doses for 72 h using a Tecan D300e Digital Dispenser and 384 well plates. Cell proliferation was measured with MTT. In vivo study was done in NOD-SCID mice; treatments were started with approximately sc 60 mm3 tumor volumes. Sensitivity was not affected by the lymphoma cell of origin (B vs T; activated B cell type DLBCL versus germinal center type DLBCL) or MYC and TP53 status. There was a non-statistically significant trend for lower sensitivity in cell lines bearing BCL2 chromosomal translocation (P=0.07, DLBCL only; P=0.06, all cell lines)."}, "[5]": {"tested_on": "DOHH2", "assay": "72 hr CellTiter-Glo, DLBCL cell line", "type": "cell-based", "conditions": "Homo sapiens, DOHH-2"}, "[6]": {"tested_on": "OCI-Ly19", "assay": "72 hr CellTiter-Glo, DLBCL cell line", "type": "cell-based", "conditions": "Homo sapiens"}, "[7]": {"tested_on": "WSU-DLCL2", "assay": "72 hr CellTiter-Glo, DLBCL cell line", "type": "cell-based", "conditions": "Homo sapiens, WSUDLCL2"}, "[8]": {"tested_on": "EWS-FLI1 and RNA helicase A", "assay": "EWS-FLI1 protein interaction (FLI1 immunoprecipitation in A4573)", "type": "binding", "conditions": "preclinical potency model", "text": "as §2\nFLI1 was immunoprecipitated following treatment with TK216 or DMSO control in A4573 (see FIG. 2)."}, "[9]": {"target": "T1, SPIB to DDX5 (Homo sapiens, UniProt Q01892)", "T1 construct": "endogenous in cells", "T1 sequence (Q01892 whole entry)": "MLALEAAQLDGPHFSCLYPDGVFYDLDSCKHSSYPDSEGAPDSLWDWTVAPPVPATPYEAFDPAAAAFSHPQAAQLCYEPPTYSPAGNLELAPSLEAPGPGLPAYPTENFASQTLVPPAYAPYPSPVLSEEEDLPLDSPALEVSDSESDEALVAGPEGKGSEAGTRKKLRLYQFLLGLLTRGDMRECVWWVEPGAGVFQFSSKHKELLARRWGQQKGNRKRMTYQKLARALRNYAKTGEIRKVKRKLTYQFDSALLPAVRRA", "assay": "Co-IP of SPIB with helicases in ABC DLBCL cell lines", "type": "cell-based", "conditions": "500 nM, 4-10 h", "text": "(§3) With the aim to understand the mechanism of action of YK-4-279 and TK-216, the baseline RNA expression levels of the different ETS factors were correlated with sensitivity to the drugs. SPIB was the gene presenting the most significant negative correlation with both YK-4-279 and TK-216, especially among the ABC DLBCL cell lines (P<0.05). SPIB is a known oncogene for ABC DLBCL (Lenz et al, PNAS 2008) and is involved in the response to lenalidomide in ABC DLBCL (Yang et al, Cancer Cell 2012). YK-4-279 inhibits the binding of EWS1-FLI1 to the helicases RHA and DDX5 (Selvanathan et al, PNAS 2012). Thus, it was assessed whether YK-4-279 and TK-216 can have a similar effect on SPIB and whether they induce cellular effects similar to lenalidomide. […] In ABC DLBCL, the ETS inhibitor YK-4-279 and its clinical derivative TK-216 interfere with SPIB and helicases involved in RNA editing. Moreover, both compounds act similarly to lenalidomide inhibiting IRF4 and upregulating IRF7 and synergize with the IMID in both ABC DLBCL and MCL."}, "[10]": {"target": "T2, SPIB to RHA (Homo sapiens, UniProt Q01892)", "T2 construct": "endogenous in cells", "T2 sequence (Q01892 whole entry)": "as above", "assay": "Co-IP of SPIB with helicases in ABC DLBCL cell lines", "type": "cell-based", "conditions": "500 nM, 4-10 h", "text": "as §3"}, "[11]": {"tested_on": "ML-2", "assay": "72 hr CellTiter-Glo, AML cell line", "type": "cell-based", "conditions": "Homo sapiens"}, "[12]": {"tested_on": "KARPAS422", "assay": "Combination with other agents, MTT, Chou-Talalay combination index", "type": "cell-based", "text": "(§4) Y-axis: CI values. In each box-plot, the line in the middle of the box represents the median and the box extends from the 25th to the 75th percentile (interquartile range, IQ); the whiskers extend to the upper and lower adjacent values (i.e., ±1.5 IQ); outside values have been omitted from the figure. CIs for TK-216/rituximab in TMD8, TK-216/rituximab in Karpas422, TK-216/rituximab in OCI-LY-10 are not plotted due to CI values >3. Combinations tested included bendamustine, bortezomib, ibrutinib, idelalisib, lenalidomide, OTX015 (birabresib, CAS No. 202590-98-5), PQR309 (bimiralisib, CAS No. 1225037-39-7 (free base)), selinexor, venetoclax, and vincristine.\nas §1"}, "[13]": {"tested_on": "TMD8", "assay": "Combination with other agents, MTT, Chou-Talalay combination index", "type": "cell-based", "text": "as §4, §1"}, "[14]": {"tested_on": "OCI-LY-10", "assay": "Combination with other agents, MTT, Chou-Talalay combination index", "type": "cell-based", "text": "as §4, §1"}, "[15]": {"tested_on": "SU-DHL-4", "assay": "Combination with other agents, MTT, Chou-Talalay combination index", "type": "cell-based", "text": "as §4, §1"}},
  "data": [
    {"smiles": "O=C(CC1(O)C(=O)Nc2c(Cl)ccc(Cl)c21)c1ccc(C2CC2)cc1", "note": "(stereo not drawn) [TK216, 4,7-Dichloro-3-(2-(4-cyclopropylphenyl)-2-oxoethyl)-3-hydroxyindolin-2-one]", "values": [
      {"measurement": "combination of TK-216 with the BET inhibitor OTX015 (MK-8628)", "setting": "[1]; with OTX015, DLBCL cell lines", "value": "synergism in 2/4 cells and additive effect in 1/4 cells"},
      {"measurement": "combination of TK-216 with the immunomodulator lenalidomide", "setting": "[1]; with lenalidomide, activated B cell type DLBCL", "value": "synergism in 2/2 activated B cell type DLBCL"},
      {"measurement": "combination of TK-216 with the anti-CD20 monoclonal antibody rituximab", "setting": "[1]; with rituximab, DLBCL cell lines", "value": "synergism in 2/3 cells"},
      {"measurement": "combination of TK-216 with the BCL2 inhibitor venetoclax", "setting": "[1]; with venetoclax, DLBCL cell lines", "value": "synergism in 3/4 cells"},
      {"measurement": "EC50", "setting": "[2]", "value": "< 200", "unit": "nM"},
      {"measurement": "IC50", "setting": "[3]", "value": 129, "unit": "nM"},
      {"measurement": "IC50", "setting": "[4]", "value": 449, "unit": "nM"},
      {"measurement": "IC50", "setting": "[5]", "value": 160, "unit": "nM"},
      {"measurement": "IC50", "setting": "[6]", "value": 106, "unit": "nM"},
      {"measurement": "IC50", "setting": "[7]", "value": 897, "unit": "nM"},
      {"measurement": "binding between EWS-FLI1 and RNA helicase A", "setting": "[8]", "value": "blocked the binding"},
      {"measurement": "binding of SPIB to DDX5", "setting": "[9]", "value": "to a lesser extent, to DDX5 was decreased"},
      {"measurement": "binding of SPIB to RHA", "setting": "[10]", "value": "decreased"},
      {"measurement": "IC50", "setting": "[11]", "value": 291, "unit": "nM"},
      {"measurement": "effect of TK216 in combination with OTX015", "setting": "[12]; KARPAS422, with OTX015", "value": "Synergism"},
      {"measurement": "effect of TK216 in combination with PQR309", "setting": "[12]; KARPAS422, with PQR309", "value": "additive effect"},
      {"measurement": "effect of TK216 in combination with bendamustine", "setting": "[12]; KARPAS422, with bendamustine", "value": "additive effect"},
      {"measurement": "effect of TK216 in combination with idelalisib", "setting": "[12]; KARPAS422, with idelalisib", "value": "Synergism"},
      {"measurement": "effect of TK216 in combination with selinexor", "setting": "[12]; KARPAS422, with selinexor", "value": "additive effect"},
      {"measurement": "effect of TK216 in combination with venetoclax", "setting": "[12]; KARPAS422, with venetoclax", "value": "Synergism"},
      {"measurement": "effect of TK216 in combination with vincristine", "setting": "[12]; KARPAS422, with vincristine", "value": "additive effect"},
      {"measurement": "CI values, TK-216/rituximab", "setting": "[12]; Karpas422, with rituximab, not plotted", "value": "> 3"},
      {"measurement": "effect of TK216 in combination with OTX015", "setting": "[13]; with OTX015", "value": "additive effect"},
      {"measurement": "effect of TK216 in combination with PQR309", "setting": "[13]; with PQR309", "value": "additive effect"},
      {"measurement": "effect of TK216 in combination with bendamustine", "setting": "[13]; with bendamustine", "value": "No benefit effects"},
      {"measurement": "effect of TK216 in combination with bortezomib", "setting": "[13]; with bortezomib", "value": "Synergism"},
      {"measurement": "effect of TK216 in combination with ibrutinib", "setting": "[13]; with ibrutinib", "value": "additive effect"},
      {"measurement": "effect of TK216 in combination with lenalidomide", "setting": "[13]; with lenalidomide", "value": "Synergism"},
      {"measurement": "effect of TK216 in combination with lidelalisib", "setting": "[13]; with lidelalisib", "value": "additive effect"},
      {"measurement": "CI values, TK-216/rituximab", "setting": "[13]; with rituximab, not plotted", "value": "> 3"},
      {"measurement": "effect of TK216 in combination with selinexor", "setting": "[13]; with selinexor", "value": "additive effect"},
      {"measurement": "effect of TK216 in combination with venetoclax", "setting": "[13]; with venetoclax", "value": "Synergism"},
      {"measurement": "effect of TK216 in combination with vincristine", "setting": "[13]; with vincristine", "value": "No benefit effects"},
      {"measurement": "effect of TK216 in combination with OTX015", "setting": "[14]; with OTX015", "value": "additive effect"},
      {"measurement": "effect of TK216 in combination with PQR309", "setting": "[14]; with PQR309", "value": "No benefit effects"},
      {"measurement": "effect of TK216 in combination with bendamustine", "setting": "[14]; with bendamustine", "value": "No benefit effects"},
      {"measurement": "effect of TK216 in combination with bortezomib", "setting": "[14]; with bortezomib", "value": "No benefit effects"},
      {"measurement": "effect of TK216 in combination with ibrutinib", "setting": "[14]; with ibrutinib", "value": "additive effect"},
      {"measurement": "effect of TK216 in combination with idelalisib", "setting": "[14]; with idelalisib", "value": "Synergism"},
      {"measurement": "effect of TK216 in combination with lenalidomide", "setting": "[14]; with lenalidomide", "value": "Synergism"},
      {"measurement": "CI values, TK-216/rituximab", "setting": "[14]; with rituximab, not plotted", "value": "> 3"},
      {"measurement": "effect of TK216 in combination with selinexor", "setting": "[14]; with selinexor", "value": "No benefit effects"},
      {"measurement": "effect of TK216 in combination with venetoclax", "setting": "[14]; with venetoclax", "value": "Synergism"},
      {"measurement": "effect of TK216 in combination with vincristine", "setting": "[14]; with vincristine", "value": "additive effect"},
      {"measurement": "effect of TK216 in combination with OTX015", "setting": "[15]; with OTX015", "value": "No benefit effects"},
      {"measurement": "effect of TK216 in combination with PQR309", "setting": "[15]; with PQR309", "value": "additive effect"},
      {"measurement": "effect of TK216 in combination with bendamustine", "setting": "[15]; with bendamustine", "value": "No benefit effects"},
      {"measurement": "effect of TK216 in combination with idelalisib", "setting": "[15]; with idelalisib", "value": "No benefit effects"},
      {"measurement": "effect of TK216 in combination with selinexor", "setting": "[15]; with selinexor", "value": "No benefit effects"},
      {"measurement": "effect of TK216 in combination with venetoclax", "setting": "[15]; with venetoclax", "value": "No benefit effects"},
      {"measurement": "effect of TK216 in combination with vincristine", "setting": "[15]; with vincristine", "value": "Synergism"}
    ]}
  ]
}
